This is an account of results in patent US7332631B2, “Fc receptor modulating compounds and compositions” (Trillium Therapeutics Inc., priority 2002, dated 2008).

Each structure is given as a SMILES string. pIC50: −log10 of the molar value.

The target in one data set is T1, FcγRIIa (Homo sapiens, UniProt P12318).
T1 construct: endogenous in cells; host or cells: washed human platelets
T1 sequence (P12318 34-317): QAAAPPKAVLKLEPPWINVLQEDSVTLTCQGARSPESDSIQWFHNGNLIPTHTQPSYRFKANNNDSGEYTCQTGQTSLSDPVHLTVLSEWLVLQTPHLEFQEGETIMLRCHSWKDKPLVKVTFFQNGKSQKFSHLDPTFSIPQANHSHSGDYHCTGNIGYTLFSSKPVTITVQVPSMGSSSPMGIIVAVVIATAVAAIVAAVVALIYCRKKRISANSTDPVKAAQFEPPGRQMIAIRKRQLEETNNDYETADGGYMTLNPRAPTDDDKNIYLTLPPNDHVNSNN
The data set can be described thus: FACS assay of activation of human platelets by heat aggregated IgG (HAGG), P-Selectin expression. It is filed as cell-based. The following applies: washed human platelets, HAGG as agonist; several values in a cell = repeat determinations; '(ICnn)' after a '<' bound = inhibition level at that concentration; read-out: Concentration at 50% inhibition of platelet activation by HAGG. Here is the method:
The compounds of Table 1 were screened in a FcγRIIa dependent platelet activation assay and/or aggregation assay where platelets are activated using heat aggregated human immunoglobulin G as an immune complex. Compounds inhibiting this process were then tested for specificity. Note that the platelets were used as the target as the only Fc receptor expressed on these cells is FcγRIIa. In addition, they are very difficult to inhibit and therefore this assists in identifying compounds with reasonable potency.
The compounds of the present invention were initially screened in a rapid FACS screening assay, measuring activation of human platelets by heat aggregated IgG. […] In addition, platelets are very sensitive to a range of stimuli and activate rapidly. Activation is measured by the appearance of the protein P-Selectin on the platelet membrane after exposure to various stimuli. The stimuli were heat aggregated with IgG and as specificity controls, collagen or thrombin.
Specifically, this assay utilises washed platelets and heat aggregated IgG (HAGG) as an immune complex (agonist) to activate and crosslink FcγRIIa. Because this is a primary screen a single concentration of small molecule inhibitor is added to the platelets (final concentration of 500 μg/ml) and allowed to incubate for 30 minutes. Heat Aggregated IgG (HAGG) (40 μg/ml) is then added to the platelets and allowed to incubate for 30 minutes. Paraformaldehyde is added to the platelets for 30 minutes prior to washing. Anti-P-Selectin (FITC conjugated) and Anti-CD41 (PE conjugated) are added and the platelets are then screened by FACS to detect expression of P-Selectin, a marker of platelet activation and CD41, which is expressed by all viable platelets.
In summary, for each compound tested the activity was measured as a function of inhibition of platelet activation and/or platelet aggregation as detailed above. Specificity is defined as specific inhibition of immune complex induced platelet activation but with no effect on arachidonic acid induced activation (and where tested no effect on thrombin, collagen or ADP induced activation).
The compounds were titrated and evaluated for capacity to prevent aggregated IgG induction of p-selectin expression as a measure of activation.
For orientation: In flow cytometry, cells or beads pass a laser one at a time.

Data set [1] is described as follows: Solubility remark in the platelet activation screen. It is filed as physicochemical. The following applies: printed instead of a % inhibition value.

As usually defined, the melting point is the temperature of the solid-liquid transition. `COc1ccc2sc(C(=O)Nc3nnn[nH]3)c(OC(C)C)c2c1[N+](=O)[O-]` [Compound 092, 3-isopropoxy-4-nitro-5-methoxy-N-(1H-1,2,3,4-tetrazol-5-yl)-1-benzo[b]thiophene-2-carboxamide] registered a melting point of 236 to 238 °C. On FcγRIIa, the pIC50 was 3.36. On to `O=C(O)c1cccc(/C=N/Nc2cc(Cl)cc(Cl)c2)c1` [Compound 080], for which the “Solubility (word printed in the % inhibition column)” value in data set [1] was “Insoluble”.
